The record followed here is US20260250290A1 (BRISTOL-MYERS SQUIBB COMPANY, priority 2023, published 2026).

The IC50 is the concentration needed to halve the response being measured.

Structures can show the parent of a compound that is named as a salt.

This experiment deals with T1, SGK1 (Homo sapiens, UniProt O00141).
T1 sequence (O00141 1-431): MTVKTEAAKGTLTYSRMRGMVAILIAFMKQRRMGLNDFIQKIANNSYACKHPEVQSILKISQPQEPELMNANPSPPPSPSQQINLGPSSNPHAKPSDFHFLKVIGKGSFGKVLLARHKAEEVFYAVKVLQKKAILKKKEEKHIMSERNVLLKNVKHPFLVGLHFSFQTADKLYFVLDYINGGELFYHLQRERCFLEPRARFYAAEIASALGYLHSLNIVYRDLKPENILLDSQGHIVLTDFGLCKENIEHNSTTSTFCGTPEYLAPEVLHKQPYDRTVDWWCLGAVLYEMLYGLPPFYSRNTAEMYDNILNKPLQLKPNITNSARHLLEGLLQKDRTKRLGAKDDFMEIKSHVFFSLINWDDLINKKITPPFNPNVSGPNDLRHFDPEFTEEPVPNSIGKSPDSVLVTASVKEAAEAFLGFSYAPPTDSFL
As to the kind of experiment: SGK1 inhibition Assay B (Echo mass spectrometry of phosphorylated peptide product). Conditions: 60 min at room temperature. Type of experiment: biochemical.
`COCC(C)(C)NC1CCC(Oc2nc(C)sc2C(=O)N[C@@H]2CCCN(c3cc(C4=CC(=O)OC4)n4ncnc(N)c34)C2)CC1` (stereo partly drawn) [Example 1000, (R)—N-(1-(4-amino-7-(5-oxo-2,5-dihydrofuran-3-yl)pyrrolo[2,1-f][1,2,4]triazin-5-yl)piperidin-3-yl)-4-((4-((1-methoxy-2-methylpropan-2-yl)amino)cyclohexyl)oxy)-2-methylthiazole-5-carboxamide] gave an IC50 of 0.7 nM. `CCN1CC[C@@H](Oc2cc(C(F)F)sc2C(=O)N[C@@H]2CCCN(c3cc(-c4ccc(C(N)=O)c(F)c4)n4ncnc(N)c34)C2)CC1(C)C` [Example 947, N—((R)-1-(4-amino-7-(4-carbamoyl-3-fluorophenyl)pyrrolo[2,1-f][1,2,4]triazin-5-yl)piperidin-3-yl)-5-(difluoromethyl)-3-(((R)-1-ethyl-2,2-dimethylpiperidin-4-yl)oxy)thiophene-2-carboxamide] gave an IC50 of 1 nM. Molecule `CC(C)N1CC2(CN(c3cccc(C(=O)N[C@@H]4CCCN(c5cc(-c6cnc(-n7cnnn7)c(F)c6)n6ncnc(N)c56)C4)n3)C2)C1` [Example 830, (R)-N-(1-(4-amino-7-(5-fluoro-6-(1H-tetrazol-1-yl)pyridin-3-yl)pyrrolo[2,1-f][1,2,4]triazin-5-yl)piperidin-3-yl)-6-(6-isopropyl-2,6-diazaspiro[3.3]heptan-2-yl)picolinamide] displayed an IC50 of 4 nM.

In the case of `COc1nc(-c2cc(N3CCC[C@@H](NC(=O)c4sc(C)nc4OC4CCC(N5CCC[C@@H]5C)CC4)C3)c3c(N)ncnn23)ccc1C(N)=O` (stereo partly drawn) [Example 1043, N—((R)-1-(4-amino-7-(5-carbamoyl-6-methoxypyridin-2-yl)pyrrolo[2,1-f] [1,2,4]triazin-5-yl)piperidin-3-yl)-2-methyl-4-((4-((S)-2-methylpyrrolidin-1-yl)cyclohexyl)oxy) thiazole-5-carboxamide], the IC50 stood at 2.1 nM.

Molecule `Cc1cc(O[C@@H]2C[C@H]3CC[C@@H](C2)N3C)c(C(=O)N[C@@H]2CCCN(c3cc(-c4cnn(C(F)F)c4)n4ncnc(N)c34)C2)s1` [Example 848, N-((R)-1-(4-amino-7-(1-(difluoromethyl)-1H-pyrazol-4-yl)pyrrolo[2,1-f][1,2,4]triazin-5-yl)piperidin-3-yl)-5-methyl-3-(((1R,3s,5S)-8-methyl-8-azabicyclo[3.2.1]octan-3-yl)oxy)thiophene-2-carboxamide, TFA salt] came in with an IC50 of 6 nM. `CN1[C@@H]2CC[C@H]1C[C@H](Oc1cc(Cl)sc1C(=O)N[C@@H]1CCCN(c3c(F)c(C4=CCOC4)n4ncnc(N)c34)C1)C2` [Example 976, N—((R)-1-(4-amino-7-(2,5-dihydrofuran-3-yl)-6-fluoropyrrolo[2,1-f][1,2,4]triazin-5-yl)piperidin-3-yl)-5-chloro-3-(((1R,3s,5S)-8-methyl-8-azabicyclo[3.2.1]octan-3-yl)oxy)thiophene-2-carboxamide] returned an IC50 of 1 nM. Regarding `Cc1nc(OC2CCC(N3CC(O)C3)CC2)c(C(=O)N[C@@H]2CCCN(c3cc(C4=CC(=O)OC4)n4ncnc(N)c34)C2)s1` (stereo partly drawn) [Example 997, (R)-N-(1-(4-amino-7-(5-oxo-2,5-dihydrofuran-3-y1)pyrrolo[2,1-f] [1,2,4]triazin-5-y1)piperidin-3-y1)-4-((4~(3-hydroxyazetidin-1-yl)cyclohexyl)oxy)-2-methylthiazole-5-carboxamide], the midpoint of inhibition, the IC50, lay at 0.6 nM. In turn, `CC(=O)N1CC=C(c2cc(N3CCC[C@@H](NC(=O)c4sc(Cl)cc4OCC(C)(C)O)C3)c3c(N)ncnn23)C1` [Example 921, (R)—N-(1-(7-(1-acetyl-2,5-dihydro-1H-pyrrol-3-yl)-4-aminopyrrolo[2,1-f][1,2,4]triazin-5-yl)piperidin-3-yl)-5-chloro-3-(2-hydroxy-2-methylpropoxythiophene-2-carboxamide TFA salt] yielded an IC50 of 7 nM. As for `CCC(C)(C)NC1CCC(Oc2nc(C)sc2C(=O)N[C@@H]2CCCN(c3cc(C4=CC(=O)OC4)n4ncnc(N)c34)C2)CC1` (stereo partly drawn) [Example 1001, (R)—N-(1-(4-amino-7-(5-oxo-2,5-dihydrofuran-3-yl)pyrrolo[2,1-f][1,2,4]triazin-5-yl)piperidin-3-yl)-2-methyl-4-((4-(tert-pentylamino)cyclohexyl)oxy)thiazole-5-carboxamide], the IC50 is 0.6 nM. Consider `Cc1nc(OC2CCC(N3CC(O)C3)CC2)c(C(=O)N[C@@H]2CCCN(c3cc(C#N)n4ncnc(N)c34)C2)s1` (stereo partly drawn) [Example 1048, (R)—N-(1-(4-amino-7-cyanopyrrolo[2,1-f][1,2,4]triazin-5-yl)piperidin-3-yl)-4-((4-(3-hydroxyazetidin-1-yl)cyclohexyl)oxy)-2-methylthiazole-5-carboxamide], for which it took 3.1 nM to reach half-maximal inhibition (IC50). Turning to `COc1nc(-c2cc(N3CCC[C@@H](NC(=O)c4sc(C)nc4OC4CCC(N5CCC[C@H]5C)CC4)C3)c3c(N)ncnn23)ccc1C(N)=O` (stereo partly drawn) [Example 1044, N—((R)-1-(4-amino-7-(5-carbamoyl-6-methoxypyridin-2-yl)pyrrolo[2,1-f][1,2,4]triazin-5-yl)piperidin-3-yl)-2-methyl-4-((4-((R)-2-methylpyrrolidin-1-yl)cyclohexyl)oxy)thiazole-5-carboxamide], the midpoint of inhibition, the IC50, lay at 2.8 nM. The molecule `CC(=O)c1ccc(-c2cc(N3CCC[C@@H](NC(=O)c4cccc(N5CCN(C)CC5)n4)C3)c3c(N)ncnn23)cn1` [Example 809, (R)-N-(1-(7-(6-acetylpyridin-3-yl)-4-aminopyrrolo[2,1-f][1,2,4]triazin-5-yl)piperidin-3-yl)-6-(4-methylpiperazin-1-yl)picolinamide] gave an IC50 of 80 nM. In turn, `Cc1cc(O[C@@H]2C[C@H]3CC[C@@H](C2)N3C)c(C(=O)N[C@@H]2CCCN(c3cc(-c4ccc(-n5cc(CCC#N)nn5)c(F)c4)n4ncnc(N)c34)C2)s1` [Example 933, N—((R)-1-(4-Amino-7-(4-(4-(2-cyanoethyl)-1H-1,2,3-triazol-1-yl)-3-fluorophenyl)pyrrolo[2,1-f][1,2,4]triazin-5-yl)piperidin-3-yl)-5-methyl-3-(((1R,3s,5S)-8-methyl-8-azabicyclo[3.2.1]octan-3-yl)oxy)thiophene-2-carboxamide] came in with an IC50 of 0.8 nM. Regarding `CN1[C@@H]2CC[C@H]1C[C@H](Oc1cc(Cl)sc1C(=O)N[C@@H]1CCCN(c3cc(-c4cnc(-n5cnnn5)c(F)c4)n4ncnc(N)c34)C1)C2` [Example 843, N-((R)-1-(4-amino-7-(5-fluoro-6-(1H-tetrazol-1-yl)pyridin-3-yl)pyrrolo[2,1-f][1,2,4]triazin-5-yl)piperidin-3-yl)-5-chloro-3-(((1R,3s,5S)-8-methyl-8-azabicyclo[3.2.1]octan-3-yl)oxy)thiophene-2-carboxamide], the midpoint of inhibition, the IC50, lay at 2 nM. Take `Cc1nc(OC2CCC(N3CC(C)C3)CC2)c(C(=O)N[C@@H]2CCCN(c3cc(C4=CC(=O)OC4)n4ncnc(N)c34)C2)s1` (stereo partly drawn) [Example 999, (R)-N-(1-(4-amino-7-(5-oxo-2,5-dihydrofuran-3-y1)pyrrolo[2,1-f] [1,2,4]triazin-5-yl)piperidin-3-y1)-2-methyl-4-((4-(3-methylazetidin-1-yl)cyclohexyl)oxy)thiazole-5-carboxamide]: half-maximal inhibition (IC50) required 0.7 nM.

In the case of `Cc1nc(O[C@H]2CC[C@@H](CNCC(C)(C)C)CC2)c(C(=O)N[C@@H]2CCCN(c3cc(-c4ccc(C(N)=O)c(F)c4)n4ncnc(N)c34)C2)s1` [Example 945, N—((R)-1-(4-Amino-7-(4-carbamoyl-3-fluorophenyl)pyrrolo[2,1-f][1,2,4]triazin-5-yl)piperidin-3-yl)-2-methyl-4-(((cis)-4-((neopentylamino)methyl)cyclohexyl)oxy)thiazole-5-carboxamide], half-maximal inhibition (IC50) required 4 nM. To `Cc1nc(OC2CC3CCC2CN3CCO)c(C(=O)N[C@@H]2CCCN(c3cc(-c4cnc(C#N)c(F)c4)n4ncnc(N)c34)C2)s1` (single isomer, unassigned) [Example 993] belongs 2 nM; to `Cc1nc(O[C@H]2CC[C@@H](N(C)C)CC2)c(C(=O)N[C@@H]2CCCN(c3cc(-c4ccc(=O)n(CC(F)(F)F)n4)n4ncnc(N)c34)C2)s1` [Example 973, N—((R)-1-(4-amino-7-(6-oxo-1-(2,2,2-trifluoroethyl)-1,6-dihydropyridazin-3-yl)pyrrolo[2,1-f][1,2,4]triazin-5-yl)piperidin-3-yl)-4-(((1s,4S)-4-(dimethylamino)cyclohexyl)oxy)-2-methylthiazole-5-carboxamide], 4 nM; to `COCCn1nc(-c2cc(N3CCC[C@@H](NC(=O)c4sc(Cl)cc4O[C@@H]4C[C@H]5CCC[C@@H](C4)N5C)C3)c3c(N)ncnn23)ccc1=O` [Example 971, N—((R)-1-(4-Amino-7-(1-(2-methoxyethyl)-6-oxo-1,6-dihydropyridazin-3-yl)pyrrolo[2,1-f][1,2,4]triazin-5-yl)piperidin-3-yl)-5-chloro-3-(((1R,3s,5S)-9-methyl-9-azabicyclo[3.3.1]nonan-3-yl)oxy)thiophene-2-carboxamide], 1 nM. Molecule `CCN1[C@@H]2CCC[C@H]1C[C@H](Oc1nc(C)sc1C(=O)N[C@@H]1CCCN(c3cc(-c4ccc(=O)n(CC(F)F)n4)n4ncnc(N)c34)C1)C2` [Example 970, N—((R)-1-(4-amino-7-(1-(2,2-difluoroethyl)-6-oxo-1,6-dihydropyridazin-3-yl)pyrrolo[2,1-f][1,2,4]triazin-5-yl)piperidin-3-yl)-4-(((1R,3s,5S)-9-ethyl-9-azabicyclo[3.3.1]nonan-3-yl)oxy)-2-methylthiazole-5-carboxamide] registered an IC50 of 5 nM.
